Holding throughout (type): cell-based
Assay [1] in a line: Cell growth assay (WST-8) (Compounds B1-B278). The following applies: 96 h; T47D cell line; WST-8, 4 days; read-out: Cell Growth Inhibition in T47D cell line IC50. Here is the method: Cell Growth Assay. The cells are seeded at certain concentration (e.g., at 1500/well) in multi-well plates overnight. Cells are subsequently treated with the compounds. A certain period of time (e.g., 4 days) after the compound treatment, 10% WST-8 reagent is added to the culture medium and incubate under certain condiction (e.g., in a CO2 incubator at 37° C. for 2.5 hours). The absorbance is measured on each sample using a microplate reader at certain wavelength (e.g., 450 nm). The relative absorbance is calculated against the vehicle control from three individually repeats.
Cell Growth Assay. The cells were seeded at 1500/well in 96 well plates overnight. One day after the seeding, they were treated with indicated doses of compounds respectively. 4 days after the compound treatment, 10% WST-8 reagent was added to the culture medium and incubate in a CO2 incubator at 37° C. for 2.5 hours. Before reading, the plate was mixed gently on an orbital shaker for one minute to ensure homogeneous distribution of color. The absorbance was measured of each sample using a microplate reader at a wavelength of 450 nm. The relative absorbance was calculated against the vehicle control from three individually repeats.
(In general: Tetrazolium dyes change colour on reduction, which living cells bring about.)

In assay [2] the target is T1, ER (Homo sapiens (Human), UniProt P03372). As to the kind of experiment: In-cell western blot analysis of relative ER percentage (Compounds B1-B278). The conditions noted are these: ER degradation, 16 hours, read-out: ICW DC50. The procedure: In-cell western blot analysis. Cells are seeded in multi-well plates (e.g., at 40,000 or 10,000 cells/well). Diluted compounds at certain concentration are added (final 0.5% DMSO) and cells are incubated for […] (e.g., 16 hours). Formaldehyde (e.g., PBS:FA=9:1) is added and followed by washing with PBS. The cells are blocked with Licor blocking buffer (Li-Cor). The relative ER percentage in treated cells are obtained by comparing the values of treated wells to those in untreated and DMSO-treated wells as 100%.
T1 sequence (P03372 whole entry): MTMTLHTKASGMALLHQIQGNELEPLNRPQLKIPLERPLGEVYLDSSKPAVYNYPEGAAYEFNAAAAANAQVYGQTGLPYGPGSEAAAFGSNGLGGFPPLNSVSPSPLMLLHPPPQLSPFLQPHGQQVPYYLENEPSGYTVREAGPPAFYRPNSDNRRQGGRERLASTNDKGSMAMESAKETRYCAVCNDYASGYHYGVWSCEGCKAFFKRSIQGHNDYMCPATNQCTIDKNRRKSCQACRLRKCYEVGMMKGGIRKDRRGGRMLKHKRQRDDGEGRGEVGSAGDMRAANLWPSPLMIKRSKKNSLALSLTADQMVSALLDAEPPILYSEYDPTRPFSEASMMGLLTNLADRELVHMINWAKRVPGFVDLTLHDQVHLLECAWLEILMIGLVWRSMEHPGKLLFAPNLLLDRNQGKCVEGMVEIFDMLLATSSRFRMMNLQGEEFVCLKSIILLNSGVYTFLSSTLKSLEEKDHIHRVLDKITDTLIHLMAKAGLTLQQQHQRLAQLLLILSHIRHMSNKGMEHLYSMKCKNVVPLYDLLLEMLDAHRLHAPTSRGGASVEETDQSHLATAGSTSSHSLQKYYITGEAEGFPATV
In-cell western blot analysis. a. seed cells in black-sided/clear bottom 96- or 384-well plates at 40,000 or 10,000 cells/well, overnight; b. add diluted compounds (final 0.5% DMSO), 16 hours. 16 h later, remove medium, add 100 μL or 25 μL of 3.7-4.0% formaldehyde (PBS:FA=9:1), RT 20 min, no shaking; c. wash with PBS, and permeabilized with 100 μL or 25 μL/well of 1×PBS+0.1% Triton X-100 10 minutes; d. block with 100 μL or 25 μL Licor blocking buffer (Li-Cor), RT 1 h, moderate shaking; d. Add 100 μL or 25 μL of anti-ER (cs-8644, 1:500-1,000)+GAPDH(Millipore MAB374, 1:1000) in Block+0.05% Tween 20. RT 2 h, gentle shaking. Negative control: cells plus secondary antibodies (no primary antibodies); e. wash×4 with PBS +0.05-0.1% Tween 20, gentel shaking; f. anti-rabbit-680 and anti-mouse-800 (both 1:1000 in LiCor block +0.05% Tween20, RT 1 h, gentle shaking, no light. LI-COR: 0.2% to reduce background; g. wash×4 with PBS+0.05% Tween 20, gental shaking; h. add 100 μL or 25 μL of PBS to each well and read on CLX plate reader. The relative ER percentage in treated cells were obtained by comparing the values of treated wells to those in untreated and DMSO-treated wells as 100%.

The target of assay [3] is T1, ER. Nature of the assay: Western blot analysis (Compounds B1-B278). The conditions noted are these: ER degradation by traditional Western blot; DC50 classes. The essentials: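 Compound-treated cells were lysed in RIPA buffer (Tris.HCl pH 7.6, 1% NP-40, deoxycholate, 0.1% SDS) with protease inhibitors; equal protein was resolved on 10% SDS-PAGE, transferred to PVDF and immunoblotted. Band intensities were quantified and normalized to GAPDH.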

As a reminder, the IC50 is the concentration that inhibits the measured activity by half. What is called DC50 is the midpoint of the concentration-degradation curve.

As for `C[C@@H]1Cc2c([nH]c3ccccc23)[C@@H](c2c(F)cc(N3CC(C(=O)N4CCN5c6ccc7c(c6OC[C@H]5C4)CN(C4CCC(=O)NC4=O)C7=O)C3)cc2F)N1CC(F)F` (mixture of isomers) [Compound B251, 3-((RS)-7-(1-(4-((1R,3R)-2-(2,2-difluoroethyl)-3-methyl-2,3,4,9-tetrahydro-1H-pyrido[3,4-b]indol-1-yl)-3,5-difluorophenyl)azetidine-3-carbonyl)-1-oxo-1,3,5,5a,6,7,8,9-octahydro-2H-pyrazino[1′,2′:4,5][1,4]oxazino[2,3-e]isoindol-2-yl)piperidine-2,6-dione], the IC50 in assay [1] is below 1 nM. Also, the DC50 on ER [2] lay in the range of 10 to 100 nM.
As to `C[C@@H]1Cc2c([nH]c3ccccc23)[C@@H](c2c(F)cc(N3CCC(C(=O)N4CCN5c6ccc7c(c6OC[C@H]5C4)CN(C4CCC(=O)NC4=O)C7=O)CC3)cc2F)N1CC(C)(F)F` (mixture of isomers) [Compound B252, 3-((RS)-7-(1-(4-((1R,3R)-2-(2,2-difluoropropyl)-3-methyl-2,3,4,9-tetrahydro-1H-pyrido[3,4-b]indol-1-yl)-3,5-difluorophenyl)piperidine-4-carbonyl)-1-oxo-1,3,5,5a,6,7,8,9-octahydro-2H-pyrazino[1′,2′:4,5][1,4]oxazino[2,3-e]isoindol-2-yl)piperidine-2,6-dione], the DC50 at ER [2] was in the range of 10 to 100 nM.
On to `C[C@@H]1Cc2c([nH]c3ccccc23)[C@@H](c2c(F)cc(N3CCC(CN4CCN5c6ccc7c(c6OC[C@H]5C4)CN(C4CCC(=O)NC4=O)C7=O)CC3)cc2F)N1CC(F)F` (mixture of isomers) [Compound B253, 3-((RS)-7-((1-(4-((1R,3R)-2-(2,2-difluoroethyl)-3-methyl-2,3,4,9-tetrahydro-1H-pyrido[3,4-b]indol-1-yl)-3,5-difluorophenyl)piperidin-4-yl)methyl)-1-oxo-1,3,5,5a,6,7,8,9-octahydro-2H-pyrazino[1′,2′:4,5][1,4]oxazino[2,3-e]isoindol-2-yl)piperidine-2,6-dione], for which, in assay [1], the concentration for half-maximal inhibition (IC50) is below 1 nM. Further, the DC50 on ER [2] lay in the range of 10 to 100 nM.
Turning to `C[C@@H]1Cc2c([nH]c3ccccc23)[C@@H](c2cnc(N3CCC(CN4CCN5c6ccc7c(c6OC[C@H]5C4)CN(C4CCC(=O)NC4=O)C7=O)CC3)nc2)N1CC(F)F` (mixture of isomers) [Compound B254, 3-((RS)-7-((1-(5-((1R,3R)-2-(2,2-difluoroethyl)-3-methyl-2,3,4,9-tetrahydro-1H-pyrido[3,4-b]indol-1-yl)pyrimidin-2-yl)piperidin-4-yl)methyl)-1-oxo-1,3,5,5a,6,7,8,9-octahydro-2H-pyrazino[1′,2′:4,5][1,4]oxazino[2,3-e]isoindol-2-yl)piperidine-2,6-dione], the concentration for half-maximal inhibition (IC50) in assay [1] was below 1 nM. In addition, the DC50 at ER [2] lay in the range of 10 to 100 nM.
As to `C[C@@H]1Cc2c([nH]c3ccccc23)[C@@H](c2cnc(N3CC4(CCC(N5CCN6c7cc8c(cc7OC[C@@H]6C5)C(=O)N(C5CCC(=O)NC5=O)C8)CC4)C3)nc2)N1CC(F)F` (stereo partly drawn) [Compound 1B32, 3-((S)-3-(2-(5-((1R,3R)-2-(2,2-difluoroethyl)-3-methyl-2,3,4,9-tetrahydro-1H-pyrido[3,4-b]indol-1-yl)pyrimidin-2-yl)-2-azaspiro[3.5]nonan-7-yl)-8-oxo-1,2,3,4,4a,5,8,10-octahydro-9H-pyrazino[1′,2′:4,5][1,4]oxazino[2,3-f]isoindol-9-yl)piperidine-2,6-dione], the IC50 in assay [1] is above 10 nM.
With `C[C@@H]1Cc2c([nH]c3ccccc23)[C@@H](c2cnc(N3CC(CCN4CCN5c6cc7c(cc6OC[C@@H]5C4)C(=O)N(C4CCC(=O)NC4=O)C7)C3)nc2)N1CC(F)F` (stereo partly drawn) [Compound B131, 3-((S)-3-(2-(1-(5-((1R,3R)-2-(2,2-difluoroethyl)-3-methyl-2,3,4,9-tetrahydro-1H-pyrido[3,4-b]indol-1-yl)pyrimidin-2-yl)azetidin-3-yl)ethyl)-8-oxo-1,2,3,4,4a,5,8,10-octahydro-9H-pyrazino[1,2′:4,5][1,4]oxazino[2,3-f]isoindol-9-yl)piperidine-2,6-dione], the IC50 in assay [1] is above 10 nM.
Still for that read-out and setting: the same measure for `C[C@@H]1Cc2c([nH]c3ccccc23)[C@@H](c2cnc(N3CC4(CC(CN5CCN6c7cc8c(cc7OC[C@@H]6C5)C(=O)N(C5CCC(=O)NC5=O)C8)C4)C3)nc2)N1CC(F)F` (stereo partly drawn) [Compound B133, 3-((S)-3-((2-(5-((1R,3R)-2-(2,2-difluoroethyl)-3-methyl-2,3,4,9-tetrahydro-1H-pyrido[3,4-b]indol-1-yl)pyrimidin-2-yl)-2-azaspiro[3.3]heptan-6-yl)methyl)-8-oxo-1,2,3,4,4a,5,8,10-octahydro-9H-pyrazino[1′,2′:4,5][1,4]oxazino[2,3-f]isoindol-9-yl)piperidine-2,6-dione]: 1 to 10 nM; for `COc1c2c(cc3c1CN(C1CCC(=O)NC1=O)C3=O)CN(CC(=O)N1CCC3(CC1)CCN(c1ncc([C@@H]4c5[nH]c6ccccc6c5C[C@@H](C)N4CC(F)F)cn1)CC3)C2` (stereo partly drawn) [Compound B134, 3-(6-(2-(9-(5-((1R,3R)-2-(2,2-difluoroethyl)-3-methyl-2,3,4,9-tetrahydro-1H-pyrido[3,4-b]indol-1-yl)pyrimidin-2-yl)-3,9-diazaspiro[5.5]undecan-3-yl)-2-oxoethyl)-4-methoxy-1-oxo-3,5,6,7-tetrahydropyrrolo[3,4-f]isoindol-2(1H)-yl)piperidine-2,6-dione]: below 1 nM.
With `C[C@@H]1Cc2c([nH]c3ccccc23)[C@@H](c2c(F)cc(N3CCN(CC(=O)N4CCN5c6ccc7c(c6OC[C@H]5C4)CN(C4CCC(=O)NC4=O)C7=O)CC3)cc2F)N1CC(F)F` (stereo partly drawn) [Compound B152, 3-((R)-7-(2-(4-(4-((1R,3R)-2-(2,2-difluoroethyl)-3-methyl-2,3,4,9-tetrahydro-1H-pyrido[3,4-b]indol-1-yl)-3,5-difluorophenyl)piperazin-1-yl)acetyl)-1-oxo-1,3,5,5a,6,7,8,9-octahydro-2H-pyrazino[1′,2′:4,5][1,4]oxazino[2,3-e]isoindol-2-yl)piperidine-2,6-dione], on ER [2], the 50% degradation concentration (DC50) was above 100 nM.
Take `C[C@@H]1Cc2c([nH]c3ccccc23)[C@@H](c2ccc(C3=CCC(C(=O)N4CCC(N5Cc6cc7c(cc6C5)C(=O)N(C5CCC(=O)NC5=O)C7=O)CC4)CC3)cc2F)N1CC1(F)CC1` (stereo partly drawn) [Compound B250, 2-(2,6-dioxopiperidin-3-yl)-6-(1-(3′-fluoro-4′-((1R,3R)-2-((1-fluorocyclopropyl)methyl)-3-methyl-2,3,4,9-tetrahydro-1H-pyrido[3,4-b]indol-1-yl)-2,3,4,5-tetrahydro-[1,1′-biphenyl]-4-carbonyl)piperidin-4-yl)-6,7-dihydropyrrolo[3,4-f]isoindole-1,3(2H,5H)-dione]: on ER [3], the “Traditional Western Degradation Potency” value is given as “C (“C”: >100 nM)”.
`COc1cc(N2CCC3(CC2)CC(CN2CCN4c5ccc6c(c5OC[C@H]4C2)CN(C2CCC(=O)NC2=O)C6=O)CO3)ccc1[C@@H]1c2[nH]c3ccccc3c2C[C@@H](C)N1CC(C)(C)F` (stereo partly drawn) [Compound B265, 3-((5aR)-7-((8-(4-((1R,3R)-2-(2-fluoro-2-methylpropyl)-3-methyl-2,3,4,9-tetrahydro-1H-pyrido[3,4-b]indol-1-yl)-3-methoxyphenyl)-1-oxa-8-azaspiro[4.5]decan-3-yl)methyl)-1-oxo-1,3,5,5a,6,7,8,9-octahydro-2H-pyrazino[1′,2′:4,5][1,4]oxazino[2,3-e]isoindol-2-yl)piperidine-2,6-dione]: the DC50 at ER [2] lay in the range of 10 to 100 nM.

The record behind these values is patent US20260007681A1, “INDOLE DERIVATIVES AS ESTROGEN RECEPTOR DEGRADERS” (REGENTS OF THE UNIVERSITY OF MICHIGAN, priority 2022, published 2026).
